Read-outs that look alike come from different tables or passages of the source.
Columns and labels:
Botrytis cinerea = test: Microtest: activity against the grey mold pathogen Botrytis cinerea (micro titer plate, absorption 405 nm, 7 days); format: cell-based; settings: single compound, 7 days after inoculation
Pyricularia oryzae = format: cell-based; settings: single compound, 7 days after inoculation

SMILES	Observed efficacy (Botrytis cinerea; 4 ppm) [%]	Observed efficacy (Pyricularia oryzae; 4 ppm) [%]	Observed efficacy (Botrytis cinerea; 1 ppm) [%]	also measured
COc1cc(CCNc2ncnc3c(F)ccc(F)c23)ccc1Oc1ncc(C(F)(F)F)cc1Cl [I-17, (5,8-Difluoro-quinazolin-4-yl)-{2-[4-(3-chloro-5-trifluoromethyl-pyridin-2-yloxy)-3-methoxy-phenyl]-ethyl}-amine]	5	56	–	–
Cn1cc(C(=O)Nc2ccccc2-c2cc(F)c(F)c(F)c2)c(C(F)F)n1 [Fluxapyroxad, reference compound]	–	–	–	Observed efficacy (Botrytis cinerea; 0.063 ppm): 29%
Fc1cccc([C@@]2(Cn3ncnc3S)O[C@@H]2c2ccccc2Cl)c1 (relative stereo) [II-1, 2-[rel-(2S;3R)-3-(2-chlorophenyl)-2-(3-fluorophenyl)-oxiranylmethyl]-2H-[1,2,4]triazole-3-thiol]	–	–	–	Observed efficacy (Botrytis cinerea; 16 ppm): 8%; Observed efficacy (Botrytis cinerea; 63 ppm): 24%; Observed efficacy (Pyricularia oryzae; 63 ppm): 27%
Fc1ccc(F)c2c(NCCc3ccc(Oc4cc(C(F)(F)F)ccn4)cc3)ncnc12 [I-5, (5,8-Difluoro-quinazolin-4-yl)-{2-[4-(4-trifluoromethyl-pyridin-2-yloxy)-phenyl]-ethyl}-amine]	–	58	14	–
COc1cc(CCNc2ncnc3c(F)cc(F)c(F)c23)ccc1Oc1cc(C(F)(F)F)ccn1 [I-19, (5,6,8-Trifluoro-quinazolin-4-yl)-{2-[4-(4-trifluoromethyl-pyridin-2-yloxy)-3-methoxy-phenyl]-ethyl}-amine]	–	–	12	–
COc1cc(CCNc2ncnc3c(F)ccc(F)c23)ccc1Oc1cc(C(F)(F)F)ccn1 [I-18, (5,8-Difluoro-quinazolin-4-yl)-{2-[4-(4-trifluoromethyl-pyridin-2-yloxy)-3-methoxy-phenyl]-ethyl}-amine]	4	57	–	–

From patent publication US20130035229A1 (priority 2010, published 2013)
